Our source for the EC50 and Kd values is patent US10947252B2, “Inhibitors of KEAP1-Nrf2 protein-protein interaction” (Janssen Pharmaceutica NV, priority 2018, dated 2021).

Assay [1] has as its system Glo-Response ARE-luc2P HEK293 cell line. In words: ARE luciferase reporter cell-based assay.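 Note: luciferase signal tracks Nrf2 activation of the ARE once compounds disrupt KEAP1-Nrf2 binding, read with One-Glo reagent, DMSO serving as low control.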 The settings on record: average of results obtained.
Assay [2] has as its target Kelch domain of human KEAP1 (321-624 aa) (Homo sapiens (Human), UniProt Q14145). Description: KEAP1 KELCH ThermoFluor binding assay.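 Note: Ligand-induced melting temperature shift of E. coli-expressed KEAP1 Kelch protein, Kd estimated from concentration-response curves of ΔTm.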 The conditions noted are these: KEAP Kelch […], 1,8-ANS, pH 7.0, average of results obtained, read-out: Tf Kd. In general terms: DSF heats the sample and reads unfolding from a dye or from intrinsic fluorescence.

For orientation: EC50 means the midpoint of the concentration-response curve. High values mean a less potent agent, low ones a more potent agent. Broadly, the Kd is the free concentration of one partner at which half of the binding sites on the other are occupied at equilibrium, for simple one-to-one binding.

Sequence of Kelch domain of human KEAP1 (321-624 aa) (Q14145 321-624): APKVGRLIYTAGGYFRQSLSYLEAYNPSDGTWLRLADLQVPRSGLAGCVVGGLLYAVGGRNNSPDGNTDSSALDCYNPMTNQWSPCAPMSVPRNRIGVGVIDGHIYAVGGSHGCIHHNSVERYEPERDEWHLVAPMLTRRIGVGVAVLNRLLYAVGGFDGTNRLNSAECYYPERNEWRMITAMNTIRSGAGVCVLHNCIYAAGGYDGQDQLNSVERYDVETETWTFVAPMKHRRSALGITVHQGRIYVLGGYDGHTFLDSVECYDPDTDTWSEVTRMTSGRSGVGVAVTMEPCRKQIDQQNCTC

As to `Cc1cnc2c(c1)S(=O)(=O)N(Cc1cc([C@H](CC(=O)O)c3ccn4c(C(F)(F)F)nnc4c3C)ccc1C#N)CC1(CC1)O2` (single isomer, unassigned) [Example 105, (*S)-3-(4-Cyano-3-((8′-methyl-1′,1′-dioxidospiro[cyclopropane-1,4′-pyrido[2,3-b][1,4,5]oxathiazepin]-2′(3′H)-yl)methyl)phenyl)-3-(8-methyl-3-(trifluoromethyl)-[1,2,4]trizolo[4,3-a]pyridine-7-yl)propanoic Acid], the EC50 in assay [1] (Homo sapiens, HEK293, 24 h) worked out at 14400 nM. Also, the Kd in assay [2] was 16 nM.

`Cc1ccc([C@@H](CC(=O)O)c2ccn3c(C(F)F)nnc3c2C)cc1CN1CC2(CC2)Oc2ncc(C(N)=O)cc2S1(=O)=O` (single isomer, unassigned) [Example 553, (*R)-3-(3-((8′-Carbamoyl-1′,1′-dioxidospiro[cyclopropane-1,4′-pyrido[2,3-b][1,4,5]oxathiazepin]-2′(3′H)-yl)methyl)-4-methylphenyl)-3-(3-(difluoromethyl)-8-methyl-[1,2,4]triazolo[4,3-a]pyridin-7-yl)propanoic Acid] returned an EC50 in assay [1] (Homo sapiens, HEK293, 24 h) of over 20000 nM. Moreover, in assay [2], the Kd stood at 769 nM.

For `Cc1cc2cc([C@@H](CC(=O)O)c3ccc(C)c(CN4C[C@@H]5CCCN5c5ncccc5S4(=O)=O)c3)n(C)c2nn1` (single isomer, unassigned) [Example 438, (*S)-3-(3,7-Dimethyl-7H-pyrrolo[2,3-c]pyridazin-6-yl)-3-(3-(((S)-5,5-dioxido-7a,8,9,10-tetrahydropyrido[2,3-f]pyrrolo[2,1-d][1,2,5]thiadiazepin-6(7H)-yl)methyl)-4-methylphenyl)propanoic Acid], the EC50 in assay [1] (Homo sapiens, HEK293, 24 h) was over 20000 nM. The Kd in assay [2] was found to be 234 nM.

In assay [1] (Homo sapiens, HEK293, 24 h), `Cc1ccc([C@H](CC(=O)O)c2ccc3c(nnn3C3CC3)c2C)cc1CN1CC2(COC2)Oc2ccccc2S1(=O)=O` (single isomer, unassigned) [Example 215, (*S)-3-(1-Cyclopropyl-4-methyl-1H-benzo[d][1,2,3]triazol-5-yl)-3-(3-((1,1-dioxidospiro[benzo[b][1,4,5]oxathiazepine-4,3′-oxetan]-2(3H)-yl)methyl)-4-methylphenyl)propanoic Acid] gave a concentration for a half-maximal effect (EC50) of 3.3 nM. Also, the Kd in assay [2] was under 1 nM.

Compound `Cc1ccc([C@@H](c2ccn3c(C(F)(F)F)nnc3c2C)C(C)(C)C(=O)O)cc1CN1CC2(CNC2)Oc2ncccc2S1(=O)=O` (single isomer, unassigned) [Example 338, (*S)-3-(3-((1′,1′-Dioxidospiro[azetidine-3,4′-pyrido[2,3-b][1,4,5]oxathiazepin]-2′(3′H)-yl)methyl)-4-methylphenyl)-2,2-dimethyl-3-(8-methyl-3-(trifluoromethyl)-[1,2,4]triazolo[4,3-a]pyridin-7-yl)propanoic Acid] yielded an EC50 in assay [1] (Homo sapiens, HEK293, 24 h) of 13.1 nM. Besides, the equilibrium dissociation constant (Kd) in assay [2] was under 1 nM.

`Cc1ccc([C@@H](c2ccn3c(C(F)(F)F)nnc3c2C)C(C)(C)C(=O)O)cc1CN1C[C@H]2CCCCN2c2ncc(C#N)cc2S1(=O)=O` (single isomer, unassigned) [Example 422, (*S)-3-(3-(((*R)-3-cyano-5,5-dioxido-7,7a,8,9,10,11-hexahydro-6H-dipyrido[2,1-d:2′,3′-f][1,2,5]thiadiazepin-6-yl)methyl)-4-methylphenyl)-2,2-dimethyl-3-(8-methyl-3-(trifluoromethyl)-[1,2,4]triazolo[4,3-a]pyridin-7-yl)propanoic Acid] displayed an EC50 in assay [1] (Homo sapiens, HEK293, 24 h) of 1.3 nM. Further, in assay [2], the Kd was under 1 nM.

`Cc1cnc2c(c1)S(=O)(=O)N(Cc1cc([C@@H](c3ccn4c(C(F)F)nnc4c3C)C(C)(C)C(=O)O)ncc1C)CC1(CC1)O2` (single isomer, unassigned) [Example 332, (*S)-3-(3-(Difluoromethyl)-8-methyl-[1,2,4]triazolo[4,3-a]pyridin-7-yl)-2,2-dimethyl-3-(5-methyl-4-((8′-methyl-1′,1′-dioxidospiro[cyclopropane-1,4′-pyrido[2,3-b][1,4,5]oxathiazepin]-2′(3′H)-yl)methyl)pyridin-2-yl)propanoic acid] had an EC50 in assay [1] (Homo sapiens, HEK293, 24 h) of 25.6 nM. The Kd in assay [2] is under 1 nM.

Take `Cc1ccc([C@H](CC(=O)O)c2ccn3c(C(F)F)nnc3c2C)cc1CN1C[C@H]2CCCN2c2ncc(C#N)cc2S1(=O)=O` (single isomer, unassigned) [Example 540, (*S)-3-(3-(((*R)-3-Cyano-5,5-dioxido-7a,8,9,10-tetrahydropyrido[2,3-f]pyrrolo[2,1-d][1,2,5]thiadiazepin-6(7H)-yl)methyl)-4-methylphenyl)-3-(3-(difluoromethyl)-8-methyl-[1,2,4]triazolo[4,3-a]pyridin-7-yl)propanoic Acid]: in assay [1] (Homo sapiens, HEK293, 24 h), the EC50 is 26.7 nM. For the same compound, the Kd in assay [2] was under 1 nM.

`Cc1cnc2c(c1)S(=O)(=O)N(Cc1cc(C(c3ccn4c(C(F)F)nnc4c3C)C(C)(C)C(=O)O)ccc1C)CC1(CCOCC1)O2` (racemic) [Example 575, (R/S)-3-(3-(Difluoromethyl)-8-methyl-[1,2,4]triazolo[4,3-a]pyridin-7-yl)-2,2-dimethyl-3-(4-methyl-3-((8′-methyl-1′,1′-dioxido-2,3,5,6-tetrahydrospiro[pyran-4,4′-pyrido[2,3-b][1,4,5]oxathiazepin]-2′(3′H)-yl)methyl)phenyl)propanoic Acid] registered an EC50 in assay [1] (Homo sapiens, HEK293, 24 h) of 6.62 nM. Also, the Kd in assay [2] was under 1 nM.

In assay [1] (Homo sapiens, HEK293, 24 h), `Cc1c([C@H](CC(=O)O)c2ccc(Cl)c(CN3CC4(COC4)Oc4ncccc4S3(=O)=O)c2)ccn2c(C(F)(F)F)nnc12` (single isomer, unassigned) [Example 87, (*R)-3-(4-Chloro-3-((1′,1′-dioxoidospiro[oxetane-3,4′-pyrido[2,3-b][1,4,5]oxathiazepin]-2′(3′H)-yl)methyl)phenyl)-3-(8-methyl-3-(trifluoromethyl)-[1,2,4]triazolo[4,3-a]pyridine-7-yl)propanoic Acid] registered an EC50 of 2530 nM. In addition, in assay [2], the Kd was 1.3 nM.

Turning to `Cc1ccc([C@@H](CC(=O)O)c2ccc3c(nnn3CC3CC3)c2C(F)F)cc1CN1C[C@H]2CCCCN2c2ncccc2S1(=O)=O` (single isomer, unassigned) [Example 171, (*R)-3-(1-(Cyclopropylmethyl)-4-(difluoromethyl)-1H-benzo[d][1,2,3]triazol-5-yl)-3-(3-(((*R)-5,5-dioxido-7,7a,8,9,10,11-hexahydro-6H-dipyrido[2,1-d:2′,3′-f][1,2,5]thiadiazepin-6-yl)methyl)-4-methylphenyl)propanoic Acid], the EC50 in assay [1] (24 hours) came out at 88 nM. Also, the Kd in assay [2] was under 1 nM.

On to `Cc1ccc([C@H](CC(=O)O)c2cc(OC(F)F)c3c(c2)nnn3C)cc1CN1C[C@H]2CCCCN2c2ncccc2S1(=O)=O` (single isomer, unassigned) [Example 2, (*S)-3-(7-(Difluoromethoxy)-1-methyl-1H-benzo[d][1,2,3]triazol-5-yl)-3-(3-(((*R)-5,5-dioxido-7,7a,8,9,10,11-hexahydro-6H-dipyrido[2,1-d:2′,3′-f][1,2,5]thiadiazepin-6-yl)methyl)-4-methylphenyl)propanoic Acid], for which it took 180 nM to reach a half-maximal effect in assay [1] (Homo sapiens, HEK293, 24 h) (EC50). Moreover, in assay [2], the Kd turned out to be 0.162 nM.
